According to ChEMBL document CHEMBL1201862, “PubChem BioAssay data set” (2004):
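Five compound concentrations were applied to cells in 96-well plates for 48 hours; endpoints were derived by simple linear interpolation of the resulting dose-response curve. GI50 = concentration required for 50% inhibition of growth.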 The source made the active and inactive calls. No stated cut-off is given here; in the data, active = GI50 up to about 1.1 µM and inactive = higher.

Assays:
Assay in all cases: NCI anticancer screen, dose series, 48 h
[1] = system: SF-295
[2] = system: A498
[3] = system: OVCAR-3
[4] = system: RPMI-8226
[5] = system: 786-0
[6] = system: HOP-92
[7] = system: MDA-MB-435
[8] = system: COLO 205
[9] = system: SR
[10] = system: SK-OV-3
[11] = system: NCI-H23
[12] = system: UO-31
[13] = system: LOX IMVI
[14] = system: CCRF-CEM
[15] = system: K562
[16] = system: OVCAR-5
[17] = system: SN12C
[18] = system: A549
[19] = system: TK-10
[20] = system: HCC 2998

| Structure (SMILES) | GI50 [1] | GI50 [2] | GI50 [3] | GI50 [4] | GI50 [5] | GI50 [6] | GI50 [7] | GI50 [8] | GI50 [9] | GI50 [10] | GI50 [11] | GI50 [12] | GI50 [13] | GI50 [14] | GI50 [15] | GI50 [16] | GI50 [17] | GI50 [18] | GI50 [19] | GI50 [20] |
| --- | --- | --- | --- | --- | --- | --- | --- | --- | --- | --- | --- | --- | --- | --- | --- | --- | --- | --- | --- | --- |
| O=c1oc2ccccc2c2c(=O)c3ccc(OC/C(=N/O)c4ccc(Cl)cc4)cc3oc12 | 1.89 µM (inactive) | 3.15 µM (inactive) | 3.62 µM (inactive) | 11.7 µM (inactive) | 11.4 µM (inactive) | 11 µM (inactive) | 2.47 µM (inactive) | 15 µM (inactive) | 2.88 µM (inactive) | 11.7 µM (inactive) | 18.4 µM (inactive) | 14.3 µM (inactive) | 11.8 µM (inactive) | 28.3 µM (inactive) | 2 µM (inactive) | 17.3 µM (inactive) | 19.9 µM (inactive) | 13.2 µM (inactive) | – | – |
| O=C1COC(c2ccccc2O)=NN1CCCN1CCCC1 | > 100 µM (inactive) | > 100 µM (inactive) | > 100 µM (inactive) | > 100 µM (inactive) | > 100 µM (inactive) | > 100 µM (inactive) | > 100 µM (inactive) | > 100 µM (inactive) | 60.3 µM (inactive) | > 100 µM (inactive) | > 100 µM (inactive) | > 100 µM (inactive) | – | – | – | > 100 µM (inactive) | > 100 µM (inactive) | > 100 µM (inactive) | > 100 µM (inactive) | – |
| CC(C)(C)OC(=O)N1CC(O)O[C@H](c2ccccc2)[C@@H]1c1ccccc1 (some centres undefined) | 16.4 µM (inactive) | 21.4 µM (inactive) | 15.6 µM (inactive) | 24.7 µM (inactive) | 27.9 µM (inactive) | 16.7 µM (inactive) | 17.3 µM (inactive) | 31 µM (inactive) | 16.7 µM (inactive) | 14.9 µM (inactive) | 15.9 µM (inactive) | 17.6 µM (inactive) | 35.7 µM (inactive) | 21.6 µM (inactive) | 33.4 µM (inactive) | 17.9 µM (inactive) | 38.2 µM (inactive) | 18.7 µM (inactive) | 17.8 µM (inactive) | – |
| CN(C)c1ccc(C=c2c3ccccc3n3c2cc(-c2ccc(Cl)cc2)[n+]3C)cc1 | 0.501 µM (active) | 1.51 µM (inactive) | 0.295 µM (active) | 0.0372 µM (active) | 0.267 µM (active) | 0.221 µM (active) | 0.207 µM (active) | 0.0705 µM (active) | – | 0.331 µM (active) | 0.195 µM (active) | 0.904 µM (active) | 0.194 µM (active) | 0.0649 µM (active) | < 0.0462 µM (active) | 1.04 µM (active) | 0.254 µM (active) | 0.238 µM (active) | 0.578 µM (active) | 0.603 µM (active) |
| COc1cc(OC)c(-c2ccc(OCc3ccccc3)c3c(OC)cc(C)cc23)c2c1C(C)=N[C@H](C)C2 | 2.01 µM (inactive) | 2.16 µM (inactive) | 2.25 µM (inactive) | 1.44 µM (inactive) | 2.1 µM (inactive) | 1.64 µM (inactive) | 2.3 µM (inactive) | 2.28 µM (inactive) | 1.16 µM (inactive) | 2.19 µM (inactive) | 2.36 µM (inactive) | 1.14 µM (inactive) | 1.88 µM (inactive) | 1.99 µM (inactive) | 1.55 µM (inactive) | 2.52 µM (inactive) | 2.04 µM (inactive) | 2.3 µM (inactive) | 1.8 µM (inactive) | – |
| O=C(O)c1cc(/C=C/c2ccc(O)c(O)c2)ccc1O | > 100 µM (inactive) | – | > 100 µM (inactive) | 31 µM (inactive) | > 100 µM (inactive) | > 100 µM (inactive) | 77.8 µM (inactive) | > 100 µM (inactive) | 38.3 µM (inactive) | > 100 µM (inactive) | > 100 µM (inactive) | > 100 µM (inactive) | > 100 µM (inactive) | 24.5 µM (inactive) | 20.3 µM (inactive) | > 100 µM (inactive) | > 100 µM (inactive) | > 100 µM (inactive) | > 100 µM (inactive) | > 100 µM (inactive) |
| CC(=O)N1C(c2[nH]c3ccccc3c2Cc2ccccc2)CCN1c1ccccc1 (centres undefined) | 4.35 µM (inactive) | – | > 10 µM (inactive) | 6.49 µM (inactive) | > 10 µM (inactive) | – | 9.06 µM (inactive) | 8.81 µM (inactive) | 4.81 µM (inactive) | > 10 µM (inactive) | 8.59 µM (inactive) | 8.73 µM (inactive) | > 10 µM (inactive) | 3.66 µM (inactive) | 3.05 µM (inactive) | > 10 µM (inactive) | > 10 µM (inactive) | 4.88 µM (inactive) | > 10 µM (inactive) | 5.97 µM (inactive) |
| Cc1cc(=O)n2nc(CCl)sc2n1 | 19.3 µM (inactive) | – | 14.9 µM (inactive) | 10.6 µM (inactive) | 15.7 µM (inactive) | 12.6 µM (inactive) | 12.7 µM (inactive) | 18.7 µM (inactive) | 13.1 µM (inactive) | 15.5 µM (inactive) | 23.2 µM (inactive) | 14.3 µM (inactive) | 4.19 µM (inactive) | 6.62 µM (inactive) | 17.8 µM (inactive) | 15 µM (inactive) | 14.3 µM (inactive) | 16.5 µM (inactive) | 10.2 µM (inactive) | 16 µM (inactive) |
| Nc1nc(N)c2nn(-c3ccc(C(=O)O)cc3)nc2n1 | > 100 µM (inactive) | > 100 µM (inactive) | > 100 µM (inactive) | > 100 µM (inactive) | > 100 µM (inactive) | > 100 µM (inactive) | > 100 µM (inactive) | > 100 µM (inactive) | – | > 100 µM (inactive) | > 100 µM (inactive) | > 100 µM (inactive) | > 100 µM (inactive) | > 100 µM (inactive) | > 100 µM (inactive) | > 100 µM (inactive) | > 100 µM (inactive) | > 100 µM (inactive) | > 100 µM (inactive) | > 100 µM (inactive) |
| Cc1ccc(C(=O)Cc2nc3c([nH]c2=O)c(C)nn3-c2ccccc2)c(C)c1 | > 10 µM (inactive) | – | 3.25 µM (inactive) | > 10 µM (inactive) | 3.55 µM (inactive) | 6.04 µM (inactive) | > 10 µM (inactive) | > 10 µM (inactive) | > 10 µM (inactive) | > 10 µM (inactive) | > 10 µM (inactive) | – | > 10 µM (inactive) | 5.69 µM (inactive) | > 10 µM (inactive) | – | > 10 µM (inactive) | 6.85 µM (inactive) | > 10 µM (inactive) | > 10 µM (inactive) |
| CC1(C)CN=C(Nc2ccc(F)cc2)S1 | > 100 µM (inactive) | – | > 100 µM (inactive) | > 100 µM (inactive) | > 100 µM (inactive) | 59.7 µM (inactive) | > 100 µM (inactive) | > 100 µM (inactive) | > 100 µM (inactive) | > 100 µM (inactive) | > 100 µM (inactive) | > 100 µM (inactive) | > 100 µM (inactive) | > 100 µM (inactive) | > 100 µM (inactive) | > 100 µM (inactive) | > 100 µM (inactive) | > 100 µM (inactive) | > 100 µM (inactive) | > 100 µM (inactive) |
| O=C1C(NS(=O)(=O)c2ccccc2)=C(n2ccnc2)C(=O)c2ccccc21 | > 100 µM (inactive) | – | > 100 µM (inactive) | > 100 µM (inactive) | > 100 µM (inactive) | > 100 µM (inactive) | > 100 µM (inactive) | > 100 µM (inactive) | > 100 µM (inactive) | > 100 µM (inactive) | > 100 µM (inactive) | > 100 µM (inactive) | > 100 µM (inactive) | > 100 µM (inactive) | > 100 µM (inactive) | > 100 µM (inactive) | > 100 µM (inactive) | > 100 µM (inactive) | 24.7 µM (inactive) | – |
| CC(=O)OCC1OC(Oc2cc(C)c(O)cc2C/C=C(\C)CC/C=C(\C)CC(=O)CC(C)C)C(O)C(OC(C)=O)C1OC(C)=O (centres undefined) | 15.1 µM (inactive) | 11 µM (inactive) | 8.81 µM (inactive) | 9.16 µM (inactive) | 21 µM (inactive) | 45.8 µM (inactive) | 15 µM (inactive) | 10.2 µM (inactive) | – | 26.2 µM (inactive) | 6.95 µM (inactive) | 3.28 µM (inactive) | 13 µM (inactive) | 9.82 µM (inactive) | 9.38 µM (inactive) | 1.83 µM (inactive) | 15.2 µM (inactive) | 7.8 µM (inactive) | 16.2 µM (inactive) | 10.7 µM (inactive) |
| c1cc2c3c(c1)[C@@H]1O[C@@H]1c1cccc(c1-3)[C@@H]1O[C@H]21 | 23.6 µM (inactive) | 63.8 µM (inactive) | – | – | 20 µM (inactive) | 20.8 µM (inactive) | 14.3 µM (inactive) | 18.1 µM (inactive) | 49.5 µM (inactive) | > 100 µM (inactive) | 16.4 µM (inactive) | 14.6 µM (inactive) | 3.08 µM (inactive) | – | 17.7 µM (inactive) | 16.5 µM (inactive) | 19.7 µM (inactive) | 31.6 µM (inactive) | 32.2 µM (inactive) | – |
| Oc1nncc2[nH]c(-c3ccccc3)cc12 | 26.2 µM (inactive) | – | 36.2 µM (inactive) | 56.4 µM (inactive) | 75 µM (inactive) | > 100 µM (inactive) | 28.2 µM (inactive) | 43.1 µM (inactive) | 46.5 µM (inactive) | 63.7 µM (inactive) | 48.9 µM (inactive) | 67.1 µM (inactive) | 66.1 µM (inactive) | 36.7 µM (inactive) | 44.1 µM (inactive) | 95.1 µM (inactive) | 54.1 µM (inactive) | 49.3 µM (inactive) | 39.4 µM (inactive) | 36 µM (inactive) |
